Data: patent US20170088584A1, “USE OF […] DRUGS FOR OS[…] AND BONE REGENERATION” (UNIVERSIDAD NACIONAL AUTONOMA DE MEXICO, priority 2015, published 2017)
“Also recorded” adds a separate entry of the source.

What was measured:
[1] = tested on: Human Osteoblasts derived from alveolar bone; test: MTT cytotoxicity and cell proliferation assay; type: cell-based; conditions: 5 μg/ml, 4 days, medium with 0.5% fetal bovine serum
Protocol: The cytotoxic effect and the effect on cell proliferation was assessed by means of the MTT colorimetric assay (tetrazolium) [3-(4,5-dimethylthazol-2-yl)-2,5-diphenyl tetrazoliumbromide], during 1, 2, 3 and 4 days. Human Osteoblasts derived from alveolar bone were planted at a density of 1×10^4 in plates of 96 wells. The cells were treated with the peptides (independently) for 4 days with concentrations of 1, 3 and 5 μg/ml of each of the peptides. The medium was replaced daily, and the peptides administered in the same way. The controls used were medium with fetal bovine serum at 10% (positive control) and medium with fetal bovine serum at 0.5% (negative control.) the peptides were administered at the various concentrations contained in the medium at 0.5%. At the end of each day of treatment, 10 μL of MTT (3-(4,5-dimethylthiazol-2-yl)-2,5-diphenyltetrazolium bromide) solution (5 mg/mL) was added to the wells and incubated for 3 hours. At the end the supernatant was removed and extraction was carried out by means of DMSO for 1 hour at 37° C. The optical density of the supernatant was read in a reader for ELISA at 570 nm. The optical density reflects the number of living cells present in the culture. […] The peptide […] (SEQ ID NO: 2) at a 5 μg/ml concentration promotes cell proliferation to a 92% with respect to the positive control (10% fetal bovine serum) (B).

[2] = tested on: ovariectomized Wistar rats with osteoporosis; test: bone microarchitecture by histology (Masson's trichrome) and μCT, ovariectomized osteoporotic rat model; type: in vivo, Wistar rats (Rattus norvegicus); conditions: 20-50 μg/kg i.p. daily 90 days; for μCT three-dimensional reconstruction of 5th lumbar vertebra / histology of femur epiphysis microarchitecture: 5 months after ovariectomy; for histology of femur epiphysis microarchitecture: Masson's trichrome; for histology of the body of the 5th lumbar vertebra: transverse and sagittal planes
Protocol: In FIGS. 5 and 6 histological sections of 5 μm thick and stained with Masson's Trichromic stain may be observed in which the microarchitecture of the epiphysis of the femur of the Wistar rats is analyzed in detail. Letter (A) of both figures corresponds to the group with no treatment which is the healthy control group. In the histological section stained with Masson's Trichromic stain, normal microarchitecture of the femoral epiphysis is observed with the cancellous bone and medullar spaces filled with bone marrow and bone occupying inter-medullar spaces. The epiphyseal plate and articular cartilage are also observed. […] Treatment with the vehicle lasted 90 days. […] These spaces have variable sizes. Articular cartilage and epiphyseal plate are also noted. […] Microphotography showing the microarchitecture of the femur epiphysis of Wistar rats. […] Articular cartilage and epiphyseal plate are also observed.
In FIGS. 7 and 8, microphotographs of histological sections of 5 μm thick of the 5th lumbar vertebra in the transverse and sagittal plane stained with Masson's Trichromic stain. Panel (A) of FIGS. 7 and 8 corresponds to the body of the 5th lumbar vertebra in the transverse (a) and sagittal (a′) planes of normal Wistar rats where cortical bone, bone trabeculate and spaces filled with bone marrow may be observed. Panel (B) of FIGS. 7 and 8 corresponds to the body of the 5th lumbar vertebra in the transverse (b) and sagittal (b′) planes of osteoporotic Wistar rats treated with physiological saline solution where cortical bone and bone trabeculate are observed with lesser width than the one of healthy Wistar rats. Medullar spaces are also observed and they are filled with fatty tissue with larger areas than those found in healthy controls.
(§1) We used 48 female rats of the Wistar strain, 3 months of age, with a weight of 250±20 gr. The animals were acclimated for 14 days at an ambient temperature of 22° C. with a photoperiod of 12 hours and relative humidity of 50%; food and water were ad libitum. The rats were sedated with acepromazine maleate (Relax 0.5 g/100 ml) at a dose of 20 μg/Kg of weight and as general anesthetic, tiletamine and zolazepam were used at a concentration of 25 mg/kg of weight.
Anesthetic maintenance was performed with constant flow of isoflurane. Once the rats were anesthetized we proceeded to perform the bilateral ovariectomy procedure for what the anesthetized rat was placed in lateral decubitus and shaved from the last rib forming a rectangle of approximately 4×3 cm. This area is disinfected with an electrolyzed super oxidant solution with neutral pH (Veteribac). Then a linear incision of approximately 2 cm up was performed with a scalpel to reach the muscle and expose the abdominal cavity. With extreme care, the cervix was located and identified. The cervix was ligated exactly on its middle portion with 6/0 polyglycolic acid sutures and subsequently the ovaries were eliminated with a scalpel. It was sutured by planes (abdominal muscles and skin) with 4/0 polyglycolic acid sutures and finally, the surgical area was cleaned with hydrogen peroxide. The rats were maintained in vivarium conditions during 5 months with 12 hours of light and 12 hours of darkness, at an average temperature of 22° C. with food and water ad libitum. […] Once this period concluded, 32 ovariectomized rats were divided into 4 groups of 8 rats each. […] The control group of osteoporotic rats […] was treated with physiological saline solution (pH 7.4) for 90 days. The healthy control group (16) rats received no treatment at all. Blood was obtained from all groups at the beginning and end of treatment (90 days). The 5th dorsal vertebra of the rats was analyzed by means of computed micro tomography (μCT) prior to euthanasia with CO2 on day 90 of treatment. The femur and 5th dorsal vertebrae were obtained, fixed in 10% paraformaldehyde and embedded in paraffin. […]

[3] = tested on: ovariectomized Wistar rats with osteoporosis; test: resistance to compression of the 5th lumbar vertebra, ovariectomized osteoporotic rat model; type: in vivo, Wistar rats (Rattus norvegicus); conditions: 20-50 μg/kg i.p. daily for 90 days, started 5 months after ovariectomy; end of treatment
Protocol: FIG. 12 corresponds to a graph showing the resistance to compression of the vertebral body of the 5th lumbar vertebra obtained from Wistar rats at the end of the 90-day experimental period, 5 months after ovariectomy. Resistance Tests were performed using an Inströn Universal Testing Machine (mod. 5567) in the body of the 5th lumbar vertebra compressed at a speed of 1 mm/min up to achieve sample fracture. The exerted force is expressed in N/mm^2. […].
as §1
Anesthetic maintenance was performed with constant flow of isoflurane. Once the rats were anesthetized we proceeded to perform the bilateral ovariectomy procedure for what the anesthetized rat was placed in lateral decubitus and shaved from the last rib forming a rectangle of approximately 4×3 cm. […] The 5th dorsal vertebra of the rats was analyzed by means of computed micro tomography (μCT) prior to euthanasia with CO2 on day 90 of treatment. […]

[4] = tested on: critical-size calvarial defect in Wistar rats; test: regeneration of critical-size calvarial defect with peptide in gelatin sponge scaffold; type: in vivo; conditions: 20-50 μg peptide per gelatin sponge (Gelfoam) disk, 9 mm defect, after 16 weeks
Excerpt: These peptides have been artificially synthesized and then combined with a three-dimensional scaffold made of gelatin (gelatin sponge), thus it was used for regeneration of critical size bone defects in an animal model: two groups of 14 male Wistar rats of approximately 250±20 grams of weight were used. Anesthesia of the rats was achieved through intraperitoneal injection of ketamine. The critical size defect was done by performing a 3 cm incision in the calvarial bone and then lifting a mucoperiostial flap. Subsequently, with a 9 mm trephine, a defect was created in the rat's calvarial bone. In the experimental group the formulation was introduced. It consisted of a 9 mm-diameter, porous, three-dimensional, gelatin-based (Gelfoam) disk containing the peptide at a concentration of 20-50 μg/disk. Previously, the dimensional scaffold (gelatin sponge) was incubated with a concentration of the corresponding peptide at 20-50 μg/disk of gelatin sponge and was vacuum dried. Control animals were treated only with a disk of gelatin sponge and a vehicle for re-suspension of the peptide (phosphate buffer pH 7.4) and another group remained without treatment. Blood supply is ensured at the surgical site. The operation site was sealed with Satin S-100, which consists primarily in gelatin. At the end of 16 weeks, the tissues were fixed with 10% formaldehyde and embedded in paraffin. […]

[5] = tested on: ovariectomized Wistar rats with osteoporosis; test: histology of liver, kidney, heart, lung, brain, spleen, muscle after 90 days of peptide administration; type: in vivo, Wistar rats (Rattus norvegicus); conditions: 20-50 μg/kg i.p. for 90 days
Protocol: The control tissues in Panel (A) correspond to: normal tissues: L=liver, K=kidney, H=heart, Lu=lung, B=brain, M=muscle, S=spleen. Panel B) tissues of Wistar rats with osteoporosis treated with the pharmaceutical formulations object of this invention; L=liver, K=kidney, H=heart, Lu=lung, B=brain, S=Spleen M=muscle. […] This means that the synthetic peptides are harmless drugs for osteoporosis treatment, producing no adverse or secondary reactions at cellular or tissue level.

[6] = biodistribution of peptide marked with pertechnetate (99mTc); type: in vivo, Wistar rats
Protocol: To determine the bio distribution of the peptides object of this invention, they were marked using technetium in the form of pertechnetate (TcO4−). In order to perform the marking, a working solution which contained: 40 ug of the peptides object of this invention, 50 ul of tartrate (2 mg/ml of acetate buffer pH5), 10 μl of SnCl2 (2 mg/ml 0.1 N HCl), 50 μl of gentisic acid (1 mg/ml) and 50 μl of 99m Tc—Na TCO4− (5 mCi) was prepared. Male Wistar rats of 250 g of weight which were at a temperature of 22° C. with a photoperiod of 12 hours and relative humidity at 50% were used. Food and water was ad libitum. To assess bio distribution, groups of three rats were formed and injected intraperitoneally with 40 μl of the marked peptide. They were sacrificed by an overdose of anesthetic at 30’, 1, 3, 6 and 24 hours. Blood samples from the heart, lung, liver, spleen, kidneys, stomach, small intestine, large intestine, muscle, bone, thyroid, brain and tooth were collected. These organs were weighed on an analytical balance and subsequently placed in a NaI(TI) solid scintillation counter to detect the activity of each one of the organs. With this procedure, the percentage of the injected dose per gram of tissue (% ID/g) was obtained.

Row | Substance | cell proliferation with regard to the positive control (10% fetal bovine serum) [1] | μCT three-dimensional reconstruction of 5th lumbar vertebra [2] | histology of femur epiphysis microarchitecture [2] | histology of the body of the 5th lumbar vertebra [2] | resistance to compression of 5th lumbar vertebra, difference compared to healthy control [3] | filling of the critical-size calvarial defect with bone [4] | histological alteration of liver, kidney, heart, lung, brain, spleen, muscle [5] | percentage of injected dose per gram of tissue (% ID/g) ([6]; bone, 30′) | percentage of injected dose per gram of tissue (% ID/g) ([6]; bone, 1 hour) | percentage of injected dose per gram of tissue (% ID/g) ([6]; bone, 24 hours) | percentage of injected dose per gram of tissue (% ID/g) ([6]; kidney, 1 hour) | percentage of injected dose per gram of tissue (% ID/g) ([6]; kidney, 3 hours) | percentage of injected dose per gram of tissue (% ID/g) ([6]; kidney, 6 hours) | percentage of injected dose per gram of tissue (% ID/g) ([6]; kidney, 24 hours) | percentage of injected dose per gram of tissue (% ID/g) ([6]; large intestine, 30′ after i.p. injection) | percentage of injected dose per gram of tissue (% ID/g) ([6]; large intestine, 24 hours) | percentage of injected dose per gram of tissue (% ID/g) ([6]; liver, 1 hour) | percentage of injected dose per gram of tissue (% ID/g) ([6]; liver, 24 hours)
1 | AVIFM | 82% | cancellous bone is present in almost the entire vertebral body | bone trabeculae forms a network structure similar to the microarchitecture of healthy control group; also recorded: full medullar spaces without evidence of osteoporotic spaces and with normal bone microarchitecture | cortical bone is observed similar to that of healthy Wistar rats | 2% | 100% |  |  |  |  |  |  |  |  |  |  |  | 
2 | MGTSSTDSQQAQHRRCSTSN | 92% | cancellous bone is present in almost the entire vertebral body | bone trabeculae forms a network structure similar to the microarchitecture of healthy control group; also recorded: full medullar spaces without evidence of osteoporotic spaces and with normal bone microarchitecture | cortical bone is observed similar to that of healthy Wistar rats | 19% | 100% | no histological feature that indicates that peptide administration in physiological saline solution causes microscopic alteration in these tissues | 1.3% | 1.4% | 0.4% | 1.6% | 2.6% | 1.3% | 0.9% | 3.6% | 0.006% | 3.4% | 0.2%
